Values quoted from earlier work as cited in publication PMC6650409, “Modeling the binding of diverse ligands within the Ah receptor ligand binding domain” (Scientific Reports, 2019).
Positions count from the first letter of the chain named.

Experiments:
S359A mutant AhR = molecular target: T1, S359A mutant AhR (Mus musculus, UniProt P30561, S359A); design: method as in PMID 21981577; settings: S359A mutation; cited from earlier work
T1 construct: made in house; host or cells: in vitro, Promega TNT Quick rabbit reticulocyte lysate
T1 sequence (P30561 10-848 S359A): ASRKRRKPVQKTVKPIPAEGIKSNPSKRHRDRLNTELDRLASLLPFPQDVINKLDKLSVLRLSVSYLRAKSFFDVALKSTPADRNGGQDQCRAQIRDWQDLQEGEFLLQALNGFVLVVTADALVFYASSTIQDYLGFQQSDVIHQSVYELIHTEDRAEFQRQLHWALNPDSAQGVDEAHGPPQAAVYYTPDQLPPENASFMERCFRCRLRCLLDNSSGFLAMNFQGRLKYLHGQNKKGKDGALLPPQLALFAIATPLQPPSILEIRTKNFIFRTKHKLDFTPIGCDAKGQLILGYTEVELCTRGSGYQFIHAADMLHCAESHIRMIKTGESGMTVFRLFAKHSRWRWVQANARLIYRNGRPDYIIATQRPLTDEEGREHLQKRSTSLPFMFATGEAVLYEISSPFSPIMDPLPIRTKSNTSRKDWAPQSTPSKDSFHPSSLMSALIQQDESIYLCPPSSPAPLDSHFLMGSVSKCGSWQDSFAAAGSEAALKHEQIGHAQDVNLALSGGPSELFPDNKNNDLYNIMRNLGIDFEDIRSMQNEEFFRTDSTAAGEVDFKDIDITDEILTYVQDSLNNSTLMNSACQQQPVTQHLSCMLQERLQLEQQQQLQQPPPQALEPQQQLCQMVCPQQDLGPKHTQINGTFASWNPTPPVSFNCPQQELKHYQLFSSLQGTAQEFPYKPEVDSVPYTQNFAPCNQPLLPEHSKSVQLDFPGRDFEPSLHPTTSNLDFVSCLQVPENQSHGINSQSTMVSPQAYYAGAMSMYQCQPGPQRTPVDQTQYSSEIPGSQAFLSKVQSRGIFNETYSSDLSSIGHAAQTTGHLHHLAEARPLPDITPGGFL

C327A mutant AhR = molecular target: T2, C327A mutant AhR (Mus musculus, UniProt P30561, C327A); design: method as in PMID 21981577; settings: C327A mutation; cited from earlier work
T2 construct: made in house; host or cells: in vitro, Promega TNT Quick rabbit reticulocyte lysate
T2 sequence (P30561 10-848 C327A): T1 sequence (P30561 10-848 S359A) with C318A, A350S

L309A mutant AhR = molecular target: T3, L309A mutant AhR (Mus musculus, UniProt P30561, L309A); design: method as in PMID 21981577; settings: L309A mutation; cited from earlier work
T3 construct: made in house; host or cells: in vitro transcription/translation (rabbit reticulocyte lysate)
T3 sequence (P30561 10-848 L309A): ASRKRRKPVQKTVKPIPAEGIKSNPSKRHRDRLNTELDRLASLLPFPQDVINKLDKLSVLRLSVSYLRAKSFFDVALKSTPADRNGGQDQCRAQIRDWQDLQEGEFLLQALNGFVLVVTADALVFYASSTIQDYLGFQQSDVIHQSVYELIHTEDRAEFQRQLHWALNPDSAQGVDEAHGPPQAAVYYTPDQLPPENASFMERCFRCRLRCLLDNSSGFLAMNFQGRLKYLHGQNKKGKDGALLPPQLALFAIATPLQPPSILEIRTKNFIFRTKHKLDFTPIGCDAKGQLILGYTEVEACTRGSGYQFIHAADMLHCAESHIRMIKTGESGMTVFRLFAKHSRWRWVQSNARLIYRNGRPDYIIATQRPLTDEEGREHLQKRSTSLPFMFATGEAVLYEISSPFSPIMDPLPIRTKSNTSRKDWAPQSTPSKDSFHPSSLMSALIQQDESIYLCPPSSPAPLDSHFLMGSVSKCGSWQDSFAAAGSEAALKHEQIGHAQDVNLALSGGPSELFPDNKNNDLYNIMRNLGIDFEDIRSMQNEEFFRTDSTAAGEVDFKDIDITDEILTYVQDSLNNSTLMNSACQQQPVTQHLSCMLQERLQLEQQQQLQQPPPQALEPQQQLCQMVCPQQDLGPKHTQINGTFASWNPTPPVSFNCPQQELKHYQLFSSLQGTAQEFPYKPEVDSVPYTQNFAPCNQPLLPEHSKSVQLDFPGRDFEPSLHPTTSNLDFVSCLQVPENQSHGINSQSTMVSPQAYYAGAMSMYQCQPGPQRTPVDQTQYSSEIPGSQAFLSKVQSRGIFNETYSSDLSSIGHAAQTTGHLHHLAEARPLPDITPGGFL
T3 sequence (P53762 whole entry partner): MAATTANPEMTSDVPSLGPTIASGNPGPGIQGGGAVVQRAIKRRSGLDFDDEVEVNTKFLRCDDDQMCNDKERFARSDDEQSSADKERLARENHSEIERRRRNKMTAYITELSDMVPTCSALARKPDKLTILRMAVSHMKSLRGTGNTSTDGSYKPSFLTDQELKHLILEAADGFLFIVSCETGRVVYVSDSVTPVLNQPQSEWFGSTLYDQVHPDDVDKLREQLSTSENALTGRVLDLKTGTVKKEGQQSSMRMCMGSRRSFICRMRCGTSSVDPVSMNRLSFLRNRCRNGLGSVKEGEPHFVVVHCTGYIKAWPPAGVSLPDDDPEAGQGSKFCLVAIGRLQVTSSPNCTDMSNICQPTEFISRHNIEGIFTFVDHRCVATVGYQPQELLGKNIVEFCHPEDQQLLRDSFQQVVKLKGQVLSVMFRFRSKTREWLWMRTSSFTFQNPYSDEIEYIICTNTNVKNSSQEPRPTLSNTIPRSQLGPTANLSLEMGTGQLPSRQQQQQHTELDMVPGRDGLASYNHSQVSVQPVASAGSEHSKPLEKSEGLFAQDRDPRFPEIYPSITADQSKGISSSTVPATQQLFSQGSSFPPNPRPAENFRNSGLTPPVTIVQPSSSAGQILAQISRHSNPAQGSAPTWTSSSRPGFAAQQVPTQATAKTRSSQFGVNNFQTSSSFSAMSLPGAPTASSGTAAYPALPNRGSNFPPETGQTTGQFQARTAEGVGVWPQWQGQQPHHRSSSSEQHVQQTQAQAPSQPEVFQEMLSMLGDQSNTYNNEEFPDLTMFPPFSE

Q377A mutant AhR = tested on: Q377A mutant AhR; design: method as in PMID 17223691; settings: mutation of Q377 to alanine; cited from earlier work
M334A mutant AhR = molecular target: T4, M334A mutant AhR (Mus musculus, UniProt P30561, M334A); design: method as in PMID 21981577; settings: M334A mutation; cited from earlier work
T4 construct: made in house; host or cells: in vitro, Promega TNT Quick rabbit reticulocyte lysate
T4 sequence (P30561 10-848 M334A): T1 sequence (P30561 10-848 S359A) with M325A, A350S

Clc1cc2c(cc1Cl)Oc1cc(Cl)c(Cl)cc1O2 [TCDD, 2,3,7,8-tetrachlorodibenzo-p-dioxin]
TCDD binding activity (S359A mutant AhR): only partially affected
TCDD binding activity (C327A mutant AhR): only partially affected
TCDD binding activity (L309A mutant AhR): dramatically reduced
TCDD specific binding (Q377A mutant AhR): abolish
TCDD binding activity (M334A mutant AhR): only partially affected
